Measured values published in US6831199B1, “Pyrimidine compounds and derivatives thereof” (G. D. Searle & Co., priority 1995, dated 2004).
Structures can show the parent of a compound that is named as a salt.

Key:
[1] = target: T1, Human vitronectin receptor (αvβ3) (Homo sapiens, UniProt P05106+P06756); test: Vitronectin adhesion assay (solid phase receptor assay, competition with biotinylated vitronectin); type: binding; details: read-out: AvB3 IC50
T1 construct: Human vitronectin receptor (αvβ3) was purified from human placenta; from tissue; host or cells: human placenta
Protocol: VITRONECTIN ADHESION ASSAY
Assay buffer, OPD substrate tablets, and RIA grade BSA were obtained from Sigma (St. Louis, Mo.). Anti-biotin antibody was obtained from Calbiochem (La Jolla, Calif.). Linbro microtiter plates were obtained from Flow Labs (McLean, Va.). ADP reagent was obtained from Sigma (St. Louis, Mo.).
(§1) Solid Phase Receptor Assays
(§2) The purified human vitronectin receptor (αvβ3) was diluted from stock solutions to 1.0 μg/mL in Tris-buffered saline containing 1.0 mM Ca^++, Mg^++, and Mn^++, pH 7.4 (TBS^+++). The diluted receptor was immediately transferred to Linbro microtiter plates at 100 μL/well (100 ng receptor/well). The plates were sealed and incubated overnight at 4° C. to allow the receptor to bind to the wells. All remaining steps were at room temperature. The assay plates were emptied and 200 μL of 1% RIA grade BSA in TBS^+++(TBS^+++/BSA) were added to block exposed plastic surfaces. Following a 2 hour incubation, the assay plates were washed with TBS^+++ using a 96 well plate washer. Logarithmic serial dilution of the test compound and controls were made starting at a stock concentration of 2 mM and using 2 nM biotinylated vitronectin in TBS^+++/BSA as the diluent. This premixing of labeled ligand with test (or control) ligand, and subsequent transfer of 50 μL aliquots to the assay plate was carried out with a CETUS Propette robot; the final concentration of the labeled ligand was 1 nM and the highest concentration of test compound was 1.0×10^−4 M. The competition occurred for two hours after which all wells were washed with a plate washer as before. Affinity purified horseradish peroxidase labeled goat anti-biotin antibody was diluted 1:3000 in TBS^+++/BSA and 125 μL were added to each well. After 30 minutes, the plates were washed and incubated with OPD/H2O2 substrate in 100 mM/L Citrate buffer, pH 5.0. The plate was read with a microtiter plate reader at a wavelength of 450 nm and when the maximum-binding control wells reached an absorbance of about 1.0, the final A450 were recorded for analysis. The data were analyzed using a macro written for use with the EXCEL™ spreadsheet program. The mean, standard deviation, and % CV were determined for duplicate concentrations. The mean A450 values were normalized to the mean of four maximum-binding controls (no competitor added)(B-MAX). The normalized values were subjected to a four parameter curve fit algorithm [Rodbard et al., Int.

[2] = target: T2, Human fibrinogen receptor (αIIbβ3) (Homo sapiens, UniProt P05106+P08514); test: Purified IIb/IIIa receptor assay (solid phase receptor assay, competition with biotinylated vitronectin); type: binding; details: read-out: IIb/IIIa IC50
T2 construct: Human fibrinogen receptor (αIIbβ3) was purified from outdated platelets; from tissue; host or cells: outdated human platelets
Protocol: PURIFIED IIb/IIIa RECEPTOR ASSAY
Human fibrinogen receptor (αIIbβ3) was purified from outdated platelets. […] Biotinylated human vitronectin was prepared by coupling NHS-biotin from Pierce Chemical Company (Rockford, Ill.) to purified vitronectin as previously described. […] Anti-biotin antibody was obtained from Calbiochem (La Jolla, Calif.). Linbro microtiter plates were obtained from Flow Labs (McLean, Va.). ADP reagent was obtained from Sigma (St. Louis, Mo.).
as §1
as §2, with “human fibrinogen” for “human vitronectin”, “receptor (αIIbβ3)” for “receptor (αvβ3)”, “in TBS^+++ (TBS^+++/BSA)” for “in TBS^+++(TBS^+++/BSA)”, “with […]” for “with OPD/H2O2”, “mM/L citrate” for “mM/L Citrate”, “fit algorithm, [Robard” for “fit algorithm [Rodbard”

Row | Compound | IC50 [1] [nM] | IC50 [2] [nM]
1 | N=C(N)Nc1cccc(C(=O)NCC(=O)NC(CC(=O)O)c2cc(N)ccc2O)c1 (racemic) [Example 234, (±)5-amino-β-[[2-[[[3-[(aminoiminomethyl)amino]phenyl]carbonyl]amino]acetyl]amino]-2-hydroxybenzenepropanoic acid, bis(trifluoroacetate)salt, monohydrate] | 89.3 | 830
2 | N=C(N)Nc1cccc(C(=O)NCC(=O)NC(CC(=O)O)c2cncc(Br)c2)c1 (racemic) [Example 235, (±)β-[[2-[[[3-[(aminoiminomethyl)amino]phenyl]carbonyl]amino]acetyl]amino]-5-bromopyridine-3-propanoic acid, bis(trifluoroacetate)salt, monohydrate] | 0.54 | 29.9
3 | O=C(O)CC(NC(=O)CNC(=O)c1cccc(NC2=NCCCN2)c1)c1cc(Cl)cc(Br)c1O (racemic) [Example 236, (±)3-bromo-5-chloro-2-hydroxy-β-[[2-[[[3-[(1,4,5,6-tetrahydropyrimidin-2-yl)amino]phenyl]carbonyl]amino]acetyl]amino]benzenepropanoic acid, trifluoroacetate salt, monohydrate] | 0.53 | 1250
4 | O=C(O)CC(NC(=O)CNC(=O)c1cccc(NC2=NCCCN2)c1)c1cc(Cl)cc(Cl)c1O (racemic) [Example 237, (±)3,5-dichloro-2-hydroxy-β-[[2-[[[3-[(1,4,5,6-tetrahydropyrimidin-2-yl)amino]phenyl]carbonyl]amino]acetyl]amino]benzenepropanoic acid, trifluoroacetate salt, monohydrate] | 0.57 | 1950
5 | O=C(O)CC(NC(=O)CNC(=O)c1cccc(NC2=NCCN2)c1)c1cc(Cl)cc(Cl)c1O (racemic) [Example 238, trifluoroacetate salt, monohydrate] | 0.92 | 646
6 | CSc1cccc(C(CC(=O)O)NC(=O)CNC(=O)c2cccc(NC(=N)N)c2)c1 (racemic) [Example 245, (±)β-[[2-[[[3-[(aminoiminomethyl)amino]phenyl]carbonyl]amino]acetyl]amino]-3-(methylthio)benzenepropanoic acid, trifluoroacetate salt] | 0.96 | 134
7 | Cc1cccc(C(CC(=O)O)NC(=O)CNC(=O)c2cccc(NC(=N)N)c2)n1 (racemic) [Example 246, (±)β-[[2-[[[3-[(aminoiminomethyl)amino]phenyl]carbonyl]amino]acetyl]amino]-6-methylpyridine-2-propanoic acid, bis(trifluoroacetate)salt] | 7.24 | 802
8 | COc1cc(C(CC(=O)O)NC(=O)CNC(=O)c2cccc(NC(=N)N)c2)cc(Br)c1OC (racemic) [Example 262, (±)β-[[2-[[[3-[(aminoiminomethyl)amino]phenyl]carbonyl]amino]acetyl]amino]-3-bromo-4,5-dimethoxybenzenepropanoic acid, trifluoroacetate salt] | 1.24 | 172
9 | C/N=C(\NC)Nc1cccc(C(=O)NCC(=O)NC(CC(=O)O)c2cc(Cl)cc(Cl)c2)c1 (racemic) [Example 294, (±)3,5-dichloro-β-[[2-[[[3-[[(methylamino)(methylimino)methyl]amino]phenyl]carbonyl]amino]acetyl]amino]benzenepropanoic acid, trifluoroacetate salt] | 173 | 1990
10 | CCN/C(=N\C)Nc1cccc(C(=O)NCC(=O)NC(CC(=O)O)c2cc(Cl)cc(Cl)c2)c1 (racemic) [Example 295, (±)3,5-dichloro-β-[[2-[[[3-[[(ethylamino)(methylimino)methyl]amino]phenyl]carbonyl]amino]acetyl]amino]benzenepropanoic acid, trifluoroacetate salt] | 144 | 4560
